One experiment has as its target PIP5K1A (human) (UniProt Q99755). As to the kind of experiment: KINOMEscan competition binding. The following applies: compound 10.0 µM.
For a further experiment, the target named is RPS6KA6 KD2 (human) (UniProt Q9UK32). As to the kind of experiment: KINOMEscan competition binding. Particulars: compound 10.0 µM.
A further experiment has as its target FLT3 (human) (UniProt P36888). Briefly: KINOMEscan competition binding. Particulars: compound 10.0 µM.
The target of a further experiment is DCLK3 (human) (UniProt Q9C098). Briefly: KINOMEscan competition binding. The following applies: compound 10.0 µM.
For a further experiment, the target named is DCLK2 (human) (UniProt Q8N568). Briefly: KINOMEscan competition binding. The following applies: compound 10.0 µM.
The subject of experiment [1] is FLT3 (human), P36888 [K663Q]. As to the kind of experiment: KINOMEscan competition binding. Particulars: compound 10.0 µM.
In the next experiment the target is DCLK1 (human) (UniProt O15075). Briefly: KINOMEscan competition binding. The following applies: compound 10.0 µM.
Another experiment has as its target PTK6 (human) (UniProt Q13882). Briefly: KINOMEscan competition binding. The following applies: compound 10.0 µM.
Experiment [2] has as its system FLT3 (human), P36888 [D835Y]. Briefly: KINOMEscan competition binding. The following applies: compound 10.0 µM.
The next experiment has as its target MYLK4 (human) (UniProt Q86YV6). As to the kind of experiment: KINOMEscan competition binding. The following applies: compound 10.0 µM.
In experiment [3] the test system is FLT3 (human), P36888 [N841I]. Briefly: KINOMEscan competition binding. Particulars: compound 10.0 µM.
Another experiment has as its target RPS6KA1 KD2 (human) (UniProt Q15418). Briefly: KINOMEscan competition binding. The following applies: compound 10.0 µM.
The subject of experiment [4] is FLT3 (human), P36888 [ITD]. As to the kind of experiment: KINOMEscan competition binding. Particulars: compound 10.0 µM.
For another experiment, the target named is MAPK7 (human) (UniProt Q13164). As to the kind of experiment: KINOMEscan competition binding. Particulars: compound 10.0 µM.
Experiment [5] relates to ABL1 (human), P00519 [F317I]. As to the kind of experiment: KINOMEscan competition binding. The following applies: compound 10.0 µM.
For experiment [6], the system named is FLT3 (human), P36888 [D835H]. Briefly: KINOMEscan competition binding. The following applies: compound 10.0 µM.
A further experiment deals with TNK2 (human) (UniProt Q07912). Briefly: KINOMEscan competition binding. Particulars: compound 10.0 µM.
The next experiment deals with CDK11A (human) (UniProt Q9UQ88). As to the kind of experiment: KINOMEscan competition binding. Particulars: compound 10.0 µM.
For experiment [7], the target named is TTK (human) (UniProt P33981). As to the kind of experiment: SelectScreen, TR FRET. Background: In TR-FRET formats the signal depends on donor and acceptor labels being close together.
A further experiment deals with ALK (human) (UniProt Q9UM73). Briefly: KINOMEscan competition binding. Particulars: compound 10.0 µM.
The target in the next experiment is PLK3 (human) (UniProt Q9H4B4). Briefly: KINOMEscan competition binding. The following applies: compound 10.0 µM.
Experiment [8] addresses TTK (human) (UniProt P33981). Briefly: KINOMEscan competition binding. The following applies: for kinase still bound, per cent of control: compound 10.0 µM.
The next experiment deals with FER (human) (UniProt P16591). Briefly: KINOMEscan competition binding. The following applies: compound 10.0 µM.
For the next experiment, the target named is SLK (human) (UniProt Q9H2G2). Briefly: KINOMEscan competition binding. The following applies: compound 10.0 µM.
A further experiment has as its target CAMK2G (human) (UniProt Q13555). As to the kind of experiment: KINOMEscan competition binding. The following applies: compound 10.0 µM.
The target in a further experiment is STK10 (human) (UniProt O94804). As to the kind of experiment: KINOMEscan competition binding. The following applies: compound 10.0 µM.
In another experiment the target is CAMKK2 (human) (UniProt Q96RR4). As to the kind of experiment: KINOMEscan competition binding. The following applies: compound 10.0 µM.
Experiment [9] addresses JAK1 JH2 pseudokinase (human) (UniProt P23458). As to the kind of experiment: KINOMEscan competition binding. The following applies: compound 10.0 µM.
Another experiment has as its target DAPK1 (human) (UniProt P53355). As to the kind of experiment: KINOMEscan competition binding. Particulars: compound 10.0 µM.
The next experiment deals with CLK1 (human) (UniProt P49759). Briefly: KINOMEscan competition binding. Particulars: compound 10.0 µM.
Another experiment has as its target MYLK (human) (UniProt Q15746). As to the kind of experiment: KINOMEscan competition binding. The following applies: compound 10.0 µM.
For a further experiment, the target named is INSRR (human) (UniProt P14616). As to the kind of experiment: KINOMEscan competition binding. The following applies: compound 10.0 µM.
The next experiment has as its target IGF1R (human) (UniProt P08069). Briefly: KINOMEscan competition binding. Particulars: compound 10.0 µM.
Another experiment has as its target STK33 (human) (UniProt Q9BYT3). As to the kind of experiment: KINOMEscan competition binding. The following applies: compound 10.0 µM.
Another experiment concerns the target RPS6KA2 KD2 (human) (UniProt Q15349). As to the kind of experiment: KINOMEscan competition binding. The following applies: compound 10.0 µM.
Another experiment addresses CAMK2A (human) (UniProt Q9UQM7). As to the kind of experiment: KINOMEscan competition binding. The following applies: compound 10.0 µM.
The next experiment has as its target PTK2 (human) (UniProt Q05397). Briefly: KINOMEscan competition binding. Particulars: compound 10.0 µM.
In a further experiment the target is PRKD3 (human) (UniProt O94806). As to the kind of experiment: KINOMEscan competition binding. Particulars: compound 10.0 µM.
The target in another experiment is CAMK1D (human) (UniProt Q8IU85). Briefly: KINOMEscan competition binding. The following applies: compound 10.0 µM.
Another experiment has as its target CLK2 (human) (UniProt P49760). As to the kind of experiment: KINOMEscan competition binding. Particulars: compound 10.0 µM.
A further experiment has as its target PLK1 (human) (UniProt P53350). As to the kind of experiment: KINOMEscan competition binding. The following applies: compound 10.0 µM.
A further experiment concerns the target GAK (human) (UniProt O14976). As to the kind of experiment: KINOMEscan competition binding. The following applies: compound 10.0 µM.
The target in another experiment is PTK2B (human) (UniProt Q14289). Briefly: KINOMEscan competition binding. Particulars: compound 10.0 µM.
The next experiment concerns the target DAPK3 (human) (UniProt O43293). Briefly: KINOMEscan competition binding. The following applies: compound 10.0 µM.
The target of a further experiment is CAMK2D (human) (UniProt Q13557). Briefly: KINOMEscan competition binding. Particulars: compound 10.0 µM.
A further experiment addresses PIK3C2B (human) (UniProt O00750). As to the kind of experiment: KINOMEscan competition binding. Particulars: compound 10.0 µM.
In a further experiment the target is PLK4 (human) (UniProt O00444). Briefly: KINOMEscan competition binding. Particulars: compound 10.0 µM.
Experiment [10] has as its system EGFR (human), P00533 [A750P; 747-749 del]. Briefly: KINOMEscan competition binding. Particulars: compound 10.0 µM.
In experiment [11] the test system is EGFR (human), P00533 [L861Q]. Briefly: KINOMEscan competition binding. Particulars: compound 10.0 µM.
Experiment [12] relates to EGFR (human), P00533 [747-751 del / S ins]. As to the kind of experiment: KINOMEscan competition binding. Particulars: compound 10.0 µM.
Experiment [13] relates to EGFR (human), P00533 [G719C; 746-750 del]. As to the kind of experiment: KINOMEscan competition binding. The following applies: compound 10.0 µM.
In experiment [14] the test system is EGFR (human), P00533 [P753S; 747-752 del]. As to the kind of experiment: KINOMEscan competition binding. Particulars: compound 10.0 µM.
The target in a further experiment is ULK2 (human) (UniProt Q8IYT8). Briefly: KINOMEscan competition binding. Particulars: compound 10.0 µM.

We go through five compounds from the kinase profiling compilation of Christmann-Franck et al. (2016).

Chain of DCLK2 (human) (Q8N568 whole entry, looked up): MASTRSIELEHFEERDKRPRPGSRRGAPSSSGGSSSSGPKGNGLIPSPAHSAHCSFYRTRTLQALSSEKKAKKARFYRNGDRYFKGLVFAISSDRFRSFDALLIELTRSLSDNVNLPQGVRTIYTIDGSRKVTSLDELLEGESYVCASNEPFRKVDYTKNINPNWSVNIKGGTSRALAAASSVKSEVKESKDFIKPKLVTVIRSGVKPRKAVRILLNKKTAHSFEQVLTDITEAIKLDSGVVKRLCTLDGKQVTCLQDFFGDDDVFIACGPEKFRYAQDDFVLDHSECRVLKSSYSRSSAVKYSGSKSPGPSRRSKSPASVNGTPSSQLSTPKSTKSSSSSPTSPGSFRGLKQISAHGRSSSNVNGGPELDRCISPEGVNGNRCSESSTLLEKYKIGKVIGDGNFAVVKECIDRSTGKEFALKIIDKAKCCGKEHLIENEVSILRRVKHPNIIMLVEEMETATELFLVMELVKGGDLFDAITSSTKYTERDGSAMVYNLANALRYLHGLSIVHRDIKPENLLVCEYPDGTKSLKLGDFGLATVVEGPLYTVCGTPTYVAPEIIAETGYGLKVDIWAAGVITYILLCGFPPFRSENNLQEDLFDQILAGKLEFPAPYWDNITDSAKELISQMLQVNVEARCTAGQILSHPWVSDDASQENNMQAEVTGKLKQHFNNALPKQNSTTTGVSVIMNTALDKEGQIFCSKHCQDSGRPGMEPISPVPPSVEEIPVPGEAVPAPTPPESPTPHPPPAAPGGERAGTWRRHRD
Chain of TTK (human) (P33981 whole entry, looked up): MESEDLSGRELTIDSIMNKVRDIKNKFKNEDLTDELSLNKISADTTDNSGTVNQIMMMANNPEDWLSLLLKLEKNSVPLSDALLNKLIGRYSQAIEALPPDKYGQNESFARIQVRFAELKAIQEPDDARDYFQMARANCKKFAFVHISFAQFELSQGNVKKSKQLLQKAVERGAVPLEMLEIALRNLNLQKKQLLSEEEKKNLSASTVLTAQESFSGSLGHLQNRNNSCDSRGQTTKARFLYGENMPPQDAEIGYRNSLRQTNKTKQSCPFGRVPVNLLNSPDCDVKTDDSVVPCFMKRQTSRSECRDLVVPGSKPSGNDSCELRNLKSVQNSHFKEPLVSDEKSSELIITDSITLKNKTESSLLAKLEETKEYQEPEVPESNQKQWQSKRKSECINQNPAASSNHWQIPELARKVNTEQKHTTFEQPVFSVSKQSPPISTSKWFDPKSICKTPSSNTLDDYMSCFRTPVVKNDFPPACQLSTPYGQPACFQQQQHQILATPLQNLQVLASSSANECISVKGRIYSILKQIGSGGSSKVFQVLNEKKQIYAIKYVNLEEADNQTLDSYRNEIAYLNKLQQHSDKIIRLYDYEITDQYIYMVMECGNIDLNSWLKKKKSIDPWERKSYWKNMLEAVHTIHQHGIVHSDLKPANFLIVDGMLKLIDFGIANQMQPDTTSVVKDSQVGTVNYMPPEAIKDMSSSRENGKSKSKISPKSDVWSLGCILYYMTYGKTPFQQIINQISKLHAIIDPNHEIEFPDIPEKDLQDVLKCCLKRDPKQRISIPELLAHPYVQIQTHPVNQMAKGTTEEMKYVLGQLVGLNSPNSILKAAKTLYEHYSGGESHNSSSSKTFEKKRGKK
Chain of RPS6KA6 KD2 (human) (Q9UK32 whole entry, looked up): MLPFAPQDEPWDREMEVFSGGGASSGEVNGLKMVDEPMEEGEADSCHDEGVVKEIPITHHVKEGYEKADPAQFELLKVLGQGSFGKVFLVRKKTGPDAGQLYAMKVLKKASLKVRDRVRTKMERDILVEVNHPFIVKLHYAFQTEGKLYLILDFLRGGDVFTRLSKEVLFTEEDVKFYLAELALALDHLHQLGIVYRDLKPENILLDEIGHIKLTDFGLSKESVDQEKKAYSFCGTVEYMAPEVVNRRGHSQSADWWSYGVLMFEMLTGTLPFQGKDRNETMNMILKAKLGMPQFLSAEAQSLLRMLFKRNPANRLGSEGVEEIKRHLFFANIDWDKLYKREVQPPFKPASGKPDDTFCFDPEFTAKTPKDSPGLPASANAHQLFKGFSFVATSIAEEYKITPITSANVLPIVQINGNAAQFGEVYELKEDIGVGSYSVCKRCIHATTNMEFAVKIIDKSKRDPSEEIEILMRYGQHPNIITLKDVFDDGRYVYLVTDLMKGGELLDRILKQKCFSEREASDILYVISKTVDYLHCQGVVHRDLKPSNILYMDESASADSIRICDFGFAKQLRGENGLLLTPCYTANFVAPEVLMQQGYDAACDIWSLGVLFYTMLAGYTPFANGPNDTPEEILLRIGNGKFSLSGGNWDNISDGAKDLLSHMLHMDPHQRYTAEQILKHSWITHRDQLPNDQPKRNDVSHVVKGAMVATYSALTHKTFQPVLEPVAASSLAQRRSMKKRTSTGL
Chain of CAMKK2 (human) (Q96RR4 whole entry, looked up): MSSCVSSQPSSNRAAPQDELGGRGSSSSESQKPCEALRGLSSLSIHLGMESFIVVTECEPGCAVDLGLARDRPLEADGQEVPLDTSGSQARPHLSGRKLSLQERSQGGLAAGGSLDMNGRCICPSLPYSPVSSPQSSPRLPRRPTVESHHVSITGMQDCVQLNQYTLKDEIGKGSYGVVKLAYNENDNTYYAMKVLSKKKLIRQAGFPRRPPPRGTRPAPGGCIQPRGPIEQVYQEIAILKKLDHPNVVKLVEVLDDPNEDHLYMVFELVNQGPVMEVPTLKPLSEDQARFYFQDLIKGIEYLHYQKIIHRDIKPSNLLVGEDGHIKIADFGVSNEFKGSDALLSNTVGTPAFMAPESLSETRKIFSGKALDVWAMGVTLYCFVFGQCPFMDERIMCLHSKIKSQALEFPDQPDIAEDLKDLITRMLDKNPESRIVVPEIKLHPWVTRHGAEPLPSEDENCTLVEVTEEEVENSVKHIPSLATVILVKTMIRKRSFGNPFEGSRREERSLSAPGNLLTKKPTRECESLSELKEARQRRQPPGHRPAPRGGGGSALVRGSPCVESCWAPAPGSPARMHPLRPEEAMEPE
Chain of DCLK1 (human) (O15075 whole entry, looked up): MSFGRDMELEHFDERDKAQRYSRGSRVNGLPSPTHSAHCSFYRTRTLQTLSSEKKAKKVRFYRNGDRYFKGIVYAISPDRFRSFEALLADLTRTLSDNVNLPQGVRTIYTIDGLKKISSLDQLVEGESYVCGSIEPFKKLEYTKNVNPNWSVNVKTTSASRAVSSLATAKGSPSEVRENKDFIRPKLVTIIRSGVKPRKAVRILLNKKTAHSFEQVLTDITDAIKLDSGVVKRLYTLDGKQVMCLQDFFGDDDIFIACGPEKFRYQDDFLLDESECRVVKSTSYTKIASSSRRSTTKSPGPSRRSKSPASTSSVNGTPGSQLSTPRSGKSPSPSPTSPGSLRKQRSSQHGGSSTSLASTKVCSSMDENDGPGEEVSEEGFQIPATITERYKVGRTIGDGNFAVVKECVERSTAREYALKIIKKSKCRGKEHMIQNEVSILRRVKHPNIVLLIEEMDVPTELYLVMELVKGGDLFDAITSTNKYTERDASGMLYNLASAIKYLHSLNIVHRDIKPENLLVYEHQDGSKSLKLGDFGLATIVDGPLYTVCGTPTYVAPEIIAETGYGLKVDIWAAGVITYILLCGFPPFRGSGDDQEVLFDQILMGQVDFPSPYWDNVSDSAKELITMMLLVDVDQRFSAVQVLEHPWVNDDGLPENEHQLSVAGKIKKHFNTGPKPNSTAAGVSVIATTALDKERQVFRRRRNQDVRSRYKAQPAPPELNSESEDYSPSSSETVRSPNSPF
Chain of IGF1R (human) (P08069 whole entry, looked up): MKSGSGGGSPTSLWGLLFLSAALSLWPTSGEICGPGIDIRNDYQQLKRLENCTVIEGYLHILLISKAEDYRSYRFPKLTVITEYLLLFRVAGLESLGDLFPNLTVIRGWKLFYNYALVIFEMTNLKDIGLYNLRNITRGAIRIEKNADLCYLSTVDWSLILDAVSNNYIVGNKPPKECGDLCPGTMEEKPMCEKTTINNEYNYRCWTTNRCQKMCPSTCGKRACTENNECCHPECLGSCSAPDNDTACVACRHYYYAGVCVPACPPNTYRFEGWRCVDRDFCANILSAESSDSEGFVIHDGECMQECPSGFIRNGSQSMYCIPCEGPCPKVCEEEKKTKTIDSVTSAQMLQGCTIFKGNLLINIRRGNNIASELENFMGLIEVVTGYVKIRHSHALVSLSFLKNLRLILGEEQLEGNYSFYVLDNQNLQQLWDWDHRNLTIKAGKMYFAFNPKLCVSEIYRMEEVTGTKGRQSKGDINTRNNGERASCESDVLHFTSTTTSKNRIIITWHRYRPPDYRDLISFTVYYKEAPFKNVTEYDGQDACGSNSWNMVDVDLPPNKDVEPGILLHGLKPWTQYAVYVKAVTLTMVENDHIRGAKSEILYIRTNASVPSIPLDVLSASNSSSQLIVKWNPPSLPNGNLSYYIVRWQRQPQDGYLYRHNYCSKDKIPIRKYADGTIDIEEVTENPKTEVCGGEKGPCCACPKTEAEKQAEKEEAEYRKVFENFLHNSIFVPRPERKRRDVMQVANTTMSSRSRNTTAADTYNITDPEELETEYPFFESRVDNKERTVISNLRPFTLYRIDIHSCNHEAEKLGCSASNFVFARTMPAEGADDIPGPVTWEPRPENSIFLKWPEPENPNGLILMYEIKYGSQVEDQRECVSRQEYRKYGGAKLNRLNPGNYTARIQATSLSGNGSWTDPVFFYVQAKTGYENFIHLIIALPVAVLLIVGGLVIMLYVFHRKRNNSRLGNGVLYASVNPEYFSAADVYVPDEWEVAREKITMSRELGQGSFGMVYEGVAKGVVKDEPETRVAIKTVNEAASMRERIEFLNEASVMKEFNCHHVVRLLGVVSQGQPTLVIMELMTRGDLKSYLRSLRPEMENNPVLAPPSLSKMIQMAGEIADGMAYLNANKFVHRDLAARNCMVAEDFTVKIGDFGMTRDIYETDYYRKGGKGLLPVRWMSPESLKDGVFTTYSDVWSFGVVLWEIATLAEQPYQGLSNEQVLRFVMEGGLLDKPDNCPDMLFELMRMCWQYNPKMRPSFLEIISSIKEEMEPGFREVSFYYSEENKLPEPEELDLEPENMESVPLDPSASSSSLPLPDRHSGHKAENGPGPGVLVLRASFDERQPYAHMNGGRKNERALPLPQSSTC

In the case of `CC(C)Oc1cc(N2CCN(C)CC2)ccc1Nc1ncc2c(n1)N(C)c1ccccc1C(=O)N2`, the kinase still bound, per cent of control was found to be 22% on PIP5K1A (human); 21% on RPS6KA6 KD2 (human); 10% on FLT3 (human); 8.1% at DCLK3 (human); 5.3% at DCLK2 (human); 10% in experiment [1]. Also, the kinase still bound, per cent of control was found to be 1.2% at DCLK1 (human); 2.6% at PTK6 (human); 2.2% in experiment [2]; 2.1% at MYLK4 (human); 0.6% in [3]; 14% on RPS6KA1 KD2 (human). Further, the kinase still bound, per cent of control was found to be 2.4% in experiment [4]; 29% at MAPK7 (human); 26% in experiment [5]; 14% in experiment [6]; 6.5% on TNK2 (human).
In general, residual activity refers to the activity still measured, relative to the control. Take `CNS(=O)(=O)c1ccc(-c2ccc(C=C3C(=O)NC(=O)NC3=O)o2)cc1`: the residual activity on CDK11A (human) was 28%.
By IC50 is commonly meant the concentration that inhibits the measured activity by half. A lower IC50 goes with greater potency in that assay. As usually defined, the Kd is a measure of binding affinity in units of concentration. A high value points to weaker binding. In turn, `COc1cc(C(=O)NC2CCN(C)CC2)ccc1Nc1ncc2c(n1)N(C1CCCC1)C(C)CC(=O)N2C` (configuration not stated) returned a half-inhibitory concentration (IC50) at TTK (human) [7] of 5.04 µM. Besides, the kinase still bound, per cent of control at RPS6KA6 KD2 (human) was 12%; at ALK (human) it was 6.2%; on DCLK2 (human) it was 19%; at PLK3 (human), 0%; at TTK (human) [8], 4.6%; on FER (human), 31%. Further, the kinase still bound, per cent of control on SLK (human) came out at 1.4%; on DCLK1 (human), 4%; on CAMK2G (human), 34%; on STK10 (human), 29%; at CAMKK2 (human), 24%; in [9], 22%. The kinase still bound, per cent of control at DAPK1 (human) amounted to 26%; on CLK1 (human), 18%; at MYLK (human) it was 2.8%; on INSRR (human), 26%; on IGF1R (human), 32%; on RPS6KA1 KD2 (human), 22%. The kinase still bound, per cent of control at STK33 (human) is 3.6%; at RPS6KA2 KD2 (human) it was 5.8%; at CAMK2A (human) it was 21%; at PTK2 (human) it was 0.4%; at PRKD3 (human), 32%; at CAMK1D (human) it was 17%. Also, the kinase still bound, per cent of control on CLK2 (human) amounted to 6.2%; on PLK1 (human) it was 19%; on GAK (human), 3.8%; on PTK2B (human), 13%; at DAPK3 (human), 17%. Also, the Kd on TTK (human) [8] turned out to be 1.43 µM.
For the compound `Nc1cnc(/C=C/c2ccc(-c3ccc(S(N)(=O)=O)cc3)o2)cn1`, the kinase still bound, per cent of control at CAMK2D (human) was determined as 31%; on CAMK2G (human), 34%; at CAMKK2 (human) it was 28%; at PIK3C2B (human), 31%.
As for `COc1cc(N2CCC(N3CCN(C)CC3)CC2)ccc1Nc1ncc2c(n1)N(C1CCCC1)C(C)CC(=O)N2C` (configuration not stated), the kinase still bound, per cent of control turned out to be 33% on RPS6KA6 KD2 (human); 5% at ALK (human); 26% at PLK4 (human); 30% on DCLK2 (human); 5.9% on PLK3 (human); 2% at TTK (human) [8]. Further, the kinase still bound, per cent of control on SLK (human) is 5.6%; at DCLK1 (human), 5.2%; in [10] it was 27%; in experiment [11] it was 30%; on CAMKK2 (human) it was 33%; on MYLK (human) it was 11%. The kinase still bound, per cent of control on INSRR (human) turned out to be 33%; on IGF1R (human) it was 29%; in [12], 34%; at STK33 (human), 9%; on RPS6KA2 KD2 (human), 16%; on PTK2 (human), 1.2%. Further, the kinase still bound, per cent of control in [13] amounted to 32%; at PLK1 (human) it was 7.2%; in [14], 34%; on GAK (human), 1.6%; at PTK2B (human), 4.2%; on ULK2 (human) it was 24%.
